Test results reported in US12043613B2, “Inhibitors of SARM1” (Disarm Therapeutics, Inc., priority 2020, dated 2024).

target: T1, SARM1 (ARM-SAM-TIR, full length SARM1) (Homo sapiens, UniProt Q6SZW1); assay: biochemical; settings: SARM1 IC50 (nM), ARM-SAM-TIR lysate 5 μg/mL from NRK1-HEK293T cells, 2 h pre-incubation, 5 uM NAD+, 2 hr room temperature
T1 sequence (Q6SZW1 with tags, fused parts or gaps): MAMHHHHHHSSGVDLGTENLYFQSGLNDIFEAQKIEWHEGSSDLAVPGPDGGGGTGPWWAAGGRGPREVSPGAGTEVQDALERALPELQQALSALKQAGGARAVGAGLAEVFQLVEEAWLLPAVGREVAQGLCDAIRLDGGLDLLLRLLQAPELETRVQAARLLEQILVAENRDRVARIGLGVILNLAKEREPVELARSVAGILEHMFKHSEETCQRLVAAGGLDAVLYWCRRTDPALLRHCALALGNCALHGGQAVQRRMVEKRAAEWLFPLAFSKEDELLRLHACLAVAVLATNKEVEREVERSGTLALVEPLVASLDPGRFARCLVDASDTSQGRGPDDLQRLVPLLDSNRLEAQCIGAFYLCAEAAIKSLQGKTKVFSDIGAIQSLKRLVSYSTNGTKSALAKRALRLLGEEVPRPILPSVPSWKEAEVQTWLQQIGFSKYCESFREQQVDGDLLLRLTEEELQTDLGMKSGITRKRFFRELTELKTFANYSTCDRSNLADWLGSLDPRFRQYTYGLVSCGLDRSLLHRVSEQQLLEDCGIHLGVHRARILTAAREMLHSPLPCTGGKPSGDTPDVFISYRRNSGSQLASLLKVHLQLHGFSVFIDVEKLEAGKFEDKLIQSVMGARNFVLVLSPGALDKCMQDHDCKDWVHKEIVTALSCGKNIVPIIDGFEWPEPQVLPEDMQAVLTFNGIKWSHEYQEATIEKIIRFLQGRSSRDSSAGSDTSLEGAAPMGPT

Row | Compound | IC50 [nM]
1 | N[C@H]1CC(Cc2ccc(Cl)nc2)C(=O)N(c2nnc(-c3ccncc3)[nH]2)C1 (single isomer, unassigned) [Compound I-61] | > 1000
2 | Cc1c(N2CCC(Cc3ccc(Cl)cc3)C2=O)n[nH]c1-c1ccncc1 (single isomer, unassigned) [I-6* (peak 1)] | 51 to 100
3 | O=C1C(Cc2ccc(F)cc2)CCN1c1nnc(-c2ccncc2)[nH]1 (single isomer, unassigned) [I-7* (peak 1)] | 101 to 500
4 | O=C1C(Cc2ccc(Cl)nc2)CCN1c1nnc(-c2ccncc2)[nH]1 (single isomer, unassigned) [I-9* (peak 1)] | 101 to 500
5 | O=C1C(Cc2ccc(Cl)nc2)CCN1c1nnc(-c2ccncc2)[nH]1 (single isomer, unassigned) [I-9* (peak 2)] | 51 to 100
6 | O=C1C(Cc2ccc(F)c(F)c2)CCN1c1nnc(-c2ccncc2)[nH]1 (single isomer, unassigned) [I-11* (peak 2)] | 51 to 100
7 | O=C1C(Cc2ccc(Cl)nc2)CCCN1c1cc(-c2ccncc2)n[nH]1 (single isomer, unassigned) [I-21* (peak 1)] | 101 to 500
8 | N#Cc1ccc(CC2CCN(c3[nH]nc(-c4ccncc4)c3F)C2=O)cc1F (single isomer, unassigned) [I-25* (peak 1)] | 101 to 500
9 | N#Cc1ccc(CC2CCN(c3nnc(-c4ccncc4)[nH]3)C2=O)cc1F (single isomer, unassigned) [I-26* (peak 1)] | 101 to 500
10 | O=C1C(Cc2ccc(F)nc2)CCN1c1[nH]nc(-c2ccncc2)c1Cl (single isomer, unassigned) [I-32* (peak 1)] | 51 to 100
11 | O=C1C(Cc2ccc(F)nc2)CCN1c1[nH]nc(-c2ccncc2)c1F (single isomer, unassigned) [I-33* (peak 1)] | 51 to 100
12 | O=C1C(Cc2ccc(F)nc2)CCN1c1[nH]nc(-c2ccncc2)c1F (single isomer, unassigned) [I-33* (peak 2)] | < 50
13 | O=C1C(Cc2ccc(Cl)nc2)CCN1c1[nH]nc(-c2ccncc2)c1Cl (single isomer, unassigned) [I-34* (peak 1)] | < 50
14 | N#Cc1ccc(CC2CCN(c3cc(-c4ccncc4)n[nH]3)C2=O)cc1F (single isomer, unassigned) [I-37* (peak 1)] | 51 to 100

The remaining lines, values ahead:

Row | IC50 [nM] | Compound
15 | < 50 | O=C1C(Cc2ccc(Cl)cc2)CCN1c1nnc(-c2ccncc2)[nH]1 (single isomer, unassigned) [I-4* (peak 1)]
16 | < 50 | O=C1C(Cc2ccc(Cl)cc2)CCCN1c1nnc(-c2ccncc2)[nH]1 (single isomer, unassigned) [I-5* (peak 1)]
17 | < 50 | O=C1C(Cc2ccc(F)cc2)CCN1c1nnc(-c2ccncc2)[nH]1 (single isomer, unassigned) [I-7* (peak 2)]
18 | < 50 | O=C1C(Cc2ccc(Cl)c(F)c2)CCN1c1nnc(-c2ccncc2)[nH]1 (single isomer, unassigned) [I-8* (peak 1)]
19 | < 50 | O=C1C(Cc2ccc(F)c(F)c2)CCN1c1nnc(-c2ccncc2)[nH]1 (single isomer, unassigned) [I-11* (peak 1)]
20 | < 50 | O=C1C(Cc2ccc(F)c(F)c2)CCN1c1cc(-c2ccncc2)n[nH]1 (single isomer, unassigned) [I-16* (peak 1)]
21 | < 50 | O=C1C(Cc2ccc(Cl)cc2)CCCN1c1cc(-c2ccncc2)n[nH]1 (single isomer, unassigned) [I-19* (peak 1)]
22 | < 50 | O=C1C(Cc2ccc(Cl)c(F)c2)CCCN1c1cc(-c2ccncc2)n[nH]1 (single isomer, unassigned) [I-20* (peak 1)]
23 | < 50 | O=C1C(Cc2ccc(Cl)nc2)CCCN1c1cc(-c2ccncc2)n[nH]1 (single isomer, unassigned) [I-21* (peak 2)]
24 | < 50 | N#Cc1ccc(CC2CCN(c3[nH]nc(-c4ccncc4)c3F)C2=O)cc1F (single isomer, unassigned) [I-25* (peak 2)]
25 | < 50 | O=C1C(Cc2ccc(F)nc2)CCN1c1[nH]nc(-c2ccncc2)c1Cl (single isomer, unassigned) [I-32* (peak 2)]
